Reference: patent US20030232102A1, “Total glycosides of paeony, method to prepare the same and uses thereof” (priority 2001, published 2003)
Read-outs that look alike come from different tables or passages of the source.

How the values were obtained:
[1] = system: Chinese hamaster lung fibroblast (CHL) cells; format: cell-based
Description: TGP, was dissolved in methyl-sulfoxide.
With method of Ishidate (1981), cells were collected in 24 and 48 hours for S9− groups and 24 hours for S9+. All assays were performed twice and their average was taken for final results.

ICR mice [2] = test: Enhanced delayed type hypersensitivity (DTH) reaction of mice induced by cyclophosphamide; format: in vivo; conditions: Cy + Solvent, Cy 250 mg/kg i.p. at d-3
Description: Cyclophosphamide was administered 3 days before (d-3) the first day sensitization (enhanced DTH model).

[3] = system: mice, IgM in the spleen cells; test: Weakened IgM formation of mice induced by cyclophosphamide; format: in vivo; conditions: Cy + solvent, Cy 125 mg/kg i.p. at d-3
Description: All groups of mice were sensitized with 0.2 ml 10% SRBC suspension i.p., mice were also administered 125 mg/kg of cyclophosphamide 3 days before the sensitization to make up the models of weakened immunoreactions. […] The mice were killed on the fifth day, organs of spleens and thymus were weighted and quantity of IgM in the spleen cells examined.

[4] = system: mice, IgM in the spleen cells; test: Enhanced IgM formation of mice induced by cyclophosphamide (spleen cell transfer); format: in vivo; conditions: group C: donor mice SOI + Cy + solvent, Cy 100 mg/kg i.p.
From the text: See table 49 and table 50 for grouping and test procedures: spleen cells of donor mice are transferred to acceptor mice. And, SRBC (4×10^8/mouse i.p.) are given to the acceptor mice for additional immune enhancement. Acceptors are killed on the fifth day of transference and examined for the quantity of IgM in the spleen cells.

[5] = system: Wistar rats, Model of Arthritis (BCG vaccine); test: Primary inflammation: degree of swelling of injected feet, BCG vaccine arthritis model; format: in vivo
Description: (§1) Animal: Wistar rats, 2-3 months, 180±30 g.
(§2) Chemical agents: Paeoniflorin R1, Lobenzarit disodium (CCA), Indomethacin (IM), and BCG vaccine
(§3) Model of Arthritis: inject 0.1 ml of 10 mg BCG vaccine to the right hind foot, bottom side, intracutaneously.
Primary inflammation: Degree of swelling of injected feet (primary inflammation): oral treatment was given 30 minutes before the inflammatory injection (BCG vaccine). The degree of swelling was measured 1, 3, 5, and 7 days after the injection.
Oral administration of Paeoniflorin R1 30˜60 minutes before inflammatory injection.
TGP's influence on degree of swelling of injected feet (primary inflammation)

[6] = system: abdominal cavity macrophage; test: Kinemics of abdominal cavity macrophage PGE2 release in arthritis rats (Paeoniflorin R1); format: in vivo; conditions: treatment from 1st day after inflammatory injection, sacrificed day 7, 14, 21, 28; FIG. 46
From the text: Kinemics in Abdominal Cavity Macrophage Release PGE2
Paeoniflorin R1 treatment started the 1st day after inflammatory injection, animal sacrificed on day 7, 14, 21, and 28.

pregnant Wistar rats = test: Test of teratogenesis in pregnant rats; format: in vivo; conditions: 250 mg/kg
Description: Ninety pregnant Wistar rats were numbered by their date of fertilization and randomly divided into five groups. The other two were for the control groups.
A positive and a negative control groups were also set up, rats were given acetosalicylic acid (250 mg/kg) in the positive group and distilled water of the same volume in the negative group.
The positive control group was treated with the acetosalicylic acid from day 9 to 11. Both were by gastric injection.
The body weight of rats in all groups was taken once every three days, and the amount of drugs were adjusted individually after the body weight. Rats were killed at day 20 of pregnancy, wombs and embryos were extracted by cesarean section, which was for the study and examination in a traditional way.

[7] = system: histidine-requiring salmonell typhimurrium mutants TA 97, TA 98, Ta 100 and TA 102; conditions: +S9, 2-AF 10 μg/plate
Description: That was a parallel test between two groups of plates with or without the mixture of S9.
Each course was to be performed twice for three plates of different concentrations. Positive indicators and solvent control were included within all courses. Courses were performed with a ‘pre-incubation’ method, and the final result comes out in average from total six values.

ICR mice [8] = conditions: CTX 80 mg/kg
Description: ICR mice of sexual maturity, all males. Six random groups with eight mice in each one.
With a gradient of 4:1, the four concentrations were set at 2500 mg/kg, 625 mg/kg, […] and 39 mg/kg.
The drug was administered by gastric injection at the above doses together with the positive indicator (Cytoxan) and the solvent control. The course was repeated after 24 hours and animals were killed six hours after the second administration. Samples were taken and examined.

[9] = system: Wistar rats, Model of Arthritis (BCG vaccine); test: Secondary inflammation: swelling of opposite non-injected feet and thymus weight, BCG vaccine arthritis model; format: in vivo; conditions: for Degree of Swelling Day 12 / Degree of Swelling Day 16 / Degree of Swelling Day 20 / Degree of Swelling Day 24 / Degree of Swelling Day 28: non-injected feet
Description: as §1, §2, §3
Secondary inflammation: Swelling degree of the opposite non-injected feet (secondary inflammation): oral treatment was given 12-28 days after the inflammatory injection. The degree of swelling was measured 12, 16, 20, 24 and 28 days after the injection.
Groups of animals for secondary inflammation: 6 groups, each contains 6 rats, groups are: 1) Normal control, receive no inflammatory injection and any pre treatment; 2) Negative control, receive inflammatory injection and no treatment; 3) Positive control, receive inflammatory injection and CCA treatment; 4) Paeoniflorin R1 groups (5, 25, 50 mg/kg/d) oral administration of Paeoniflorin R1 30˜60 minutes before inflammatory injection.
TGP's influence on degree of swelling of opposite, non-injected feet (secondary inflammation)

[10] = system: abdominal cavity macrophage; test: H2O2, IL-1 and PGE2 produced by abdominal cavity macrophage of arthritis rats (Paeoniflorin R1); format: in vivo; conditions: 25 mg/kg from 7 days after inflammatory injection, sacrificed day 17; FIG. 44
Description: Amount of H2O2, IL-1, and PGE2 produced by abdominal cavity macrophage: Use 5 rats in each group, paeoniflorin R1 (25 mg/kg) treatment starts 7 days after inflammatory injection, animal sacrificed on day 17.

[11] = system: sub-group T cell in peripheral circulation; test: Sub-group T cell (Th/Ts) in peripheral circulation of arthritis rats (Paeoniflorin R1); format: in vivo; conditions: 25 mg/kg from 18 days after inflammatory injection, sacrificed day 26; P<0.01; FIG. 45
Description: Sub-Group T Cell in Peripheral Circulation
Paeoniflorin R1 treatment (25 mg/kg) started at 18 days after inflammatory injection, animal sacrificed on day 26.

synovial cells = test: IL-1, TNF and PGE2 produced by synovial cells of arthritis rats (Paeoniflorin R1); format: in vivo; conditions: 25 mg/kg from 12 days after inflammatory injection, sacrificed day 22; P<0.01
Description: IL-1, TNF, and PGE2 Produced by Synovial Cells
Paeoniflorin R1 treatment (25 mg/kg) started at 12 days after inflammatory injection, animal sacrificed on day 22.

[12] = system: Sprage-Dawley (SD) rats, adjuvant arthritis; test: Adjuvant arthritis in rats (FCA): secondary inflammation, non-injected foot, thymus, pathology; format: in vivo
[13] = system: Sprage-Dawley (SD) rats, adjuvant arthritis; test: Adjuvant arthritis in rats (FCA): primary inflammation, injected foot; format: in vivo
[14] = S9+, CP (60.0 μg/ml, 24, by row order of Table 43)

## O=P1(N(CCCl)CCCl)NCCCO1 (centres unmarked) [CP, Cyclophosphamide]
[1]; CP (15 μg/ml, 48, by row order of Table 43)
  Result of chromosome aberration test: + +
[1]; CP (60.0 μg/ml, 24, by row order of Table 43)
  Result of chromosome aberration test: + +
[1]; [14]
  Deformation (types): g, p, b, r, t, f
  Deformation Rate: 44.0%
[1]; S9−, CP 15 μg/ml, incubation 48
  Deformation Rate: 34.5%
ICR mice [2]
  Degree of ear swelling: 28.1 ± 7.2
[3]
  Quantity of Ig M (A value): 0.41 ± 0.10
  Weight of Spleen: 56.6 +11.5
  weight of thymus: 6.2 ± 4.7
[4]
  Ig M (A), acceptor mice: 0.53 ± 0.03^ΔΔ
  Rate of inhibition: 24.3

## COc1ccc2c(c1)c(CC(=O)O)c(C)n2C(=O)c1ccc(Cl)cc1 [IM, Indomethacin]
[5]; 2 mg/kg/d oral
  Degree of Swelling Day 1: 0.52
  Degree of Swelling Day 3: 0.57
  Degree of Swelling Day 5: 0.34
  Degree of Swelling Day 7: 0.30
[6]
  abdominal cavity macrophage PGE2 release: effective in PGE2 release

## CC(=O)Oc1ccccc1C(=O)O [acetosalicylic acid]
Pregnant Wistar rats
  malformation in appearance (harelip, split tongue, short body, abnormal limbs): 4.4%
Pregnant Wistar rats; P<0.01
  deformity rate in skeletal system: 69.5%
Pregnant Wistar rats; P<0.01 and P<0.05
  growth of embryo rats vs negative control: showed differences in the body weight and length of embryos
Pregnant Wistar rats; day 9 to 11, P<0.01
  absorptive embryo rate, dead embryo rate, survival rate vs negative control: much higher absorptive embryo rate, and dead embryo rate, and lower survival rate

## Nc1ccc2c(c1)Cc1ccccc1-2 [2-AF]
[7]
  reverting colonies, AT 97: 598 ± 27.4
  reverting colonies, AT 98: 974 ± 30.7
  reverting colonies, AT 100: 772 ± 29.8

## O=P1(N(CCCl)CCCl)NCCCO1 (centres unmarked) [CTX, Cytoxan]
ICR mice [8]
  MPCE % ± SD: 41.37 ± 10.29%

## CO[C@@]12[C@H](COC(N)=O)C3=C(C(=O)C(C)=C(N)C3=O)N1C[C@@H]1N[C@@H]12 [MMC, Mitomycin C]
[1]
  Deformation (types): g, b, p, t, f
  Deformation Rate: 79.5%

## 2-hydroxy-3 Methyl-Glucoside-4-Oxo-7-Carbonyl-Tricyclo [3,2,2,0^1,2]-Nonanyl-Benzoicmethoxycarbonyl [Paeoniflorin R1]
[5]; 25 mg/kg/d oral
  Degree of Swelling Day 1: 0.59
  Degree of Swelling Day 3: 0.81
  Degree of Swelling Day 5: 0.50
  Degree of Swelling Day 7: 0.40
[9]; 5 mg/kg/d oral
  W. of Thymus Glands: 16.3 mg/kg body W.
  Degree of Swelling Day 12: 0.35
  Degree of Swelling Day 16: 0.42
  Degree of Swelling Day 20: 0.33
  Degree of Swelling Day 24: 0.25
  Degree of Swelling Day 28: 0.26
[9]; 25 mg/kg/d oral
  W. of Thymus Glands: 19.4 mg/kg body W.
  Degree of Swelling Day 12: 0.41±
  Degree of Swelling Day 16: 0.39
  Degree of Swelling Day 20: 0.20
  Degree of Swelling Day 24: 0.15
  Degree of Swelling Day 28: 0.23
[9]; 50 mg/kg/d oral
  W. of Thymus Glands: 13.9 mg/kg body W.
  Degree of Swelling Day 12: 0.40
  Degree of Swelling Day 16: 0.39
  Degree of Swelling Day 20: 0.30
  Degree of Swelling Day 24: 0.27
  Degree of Swelling Day 28: 0.24
[10]
  Amount of H2O2, IL-1, and PGE2 produced by abdominal cavity macrophage: can decrease the above reaction
[11]
  Th/Ts in peripheral circulation: can improve Th/Ts
[6]
  abdominal cavity macrophage PGE2 release: effective in PGE2 release
Synovial cells
  IL-1, TNF, and PGE2 produced by synovial cells (result worded as Th/Ts): can improve Th/Ts

## O=C(O)c1ccccc1Nc1cc(Cl)ccc1C(=O)O [CCA, Lobenzarit disodium]
[5]; 50 mg/kg/d oral
  Degree of Swelling Day 1: 0.65
  Degree of Swelling Day 3: 0.96
  Degree of Swelling Day 5: 0.68
  Degree of Swelling Day 7: 0.65
[9]; 50 mg/kg/d oral
  W. of Thymus Glands: 14.4 mg/kg body W.
  Degree of Swelling Day 12: 0.40
  Degree of Swelling Day 16: 0.55
  Degree of Swelling Day 20: 0.42
  Degree of Swelling Day 24: 0.14
  Degree of Swelling Day 28: 0.05
[12]; AA rats, gastric infusion d12 through d20
  weight of thymus: the weight of their thymus are gained
[12]; AA rats, gastric infusion d12 through d20, all three doses of TGP, one dose CCA
  joint swelling: certain improvements in joint swelling
[12]; CCA 50 mg/kgd
  weight of thymus: 14.3 ± 3.9
[12]; d20, CCA 50 mg/kgd
  Degree of Swelling, non-injected foot: 0.41 ± 0.22 mL
[12]; d24, CCA 50 mg/kgd
  Degree of Swelling, non-injected foot: 0.14 ± 0.15 mL
[12]; d28, CCA 50 mg/kgd
  Degree of Swelling, non-injected foot: 0.05 ± 0.02 mL
[13]; d3, CCA 50 mg/kgd
  Degree of swelling, injected foot: 0.94 ± 0.17
[13]; d5, CCA 50 mg/kgd
  Degree of swelling, injected foot: 0.67 ± 0.18
[13]; d7, CCA 50 mg/kgd
  Degree of swelling, injected foot: 0.63 ± 0.18
